Measurements from patent publication US20170190671A1, “BIS(ARYL)CATECHOL DERIVATIVES AS HERBICIDES” (E I DU PONT DE NEMOURS AND COMPANY, priority 2014, published 2017).

Legend:
Test in all cases: Test E preemergence
Type in all cases: in vivo
Conditions in all cases: scale 0 to 100
[1] = tested on: Brazilian crabgrass (Digitaria horizontalis)
How it was run: (§1)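 Test chemicals, formulated in a non-phytotoxic solvent with surfactant, are applied to silt loam soil after sowing or sprayed over young plants (1–4 leaves) in potting medium. Plants are then kept in a greenhouse for 14 to 21 days and scored 0–100 for control.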

[2] = tested on: Italian ryegrass (Lolium multiflorum)
How it was run: as §1

[3] = tested on: Surinam grass (Brachiaria decumbens)
How it was run: as §1

[4] = tested on: arrowleaf sida (Sida rhombifolia)
How it was run: as §1

[5] = tested on: barnyardgrass (Echinochloa crus-galli)
How it was run: as §1

[6] = tested on: corn (Zea mays)
How it was run: as §1

[7] = tested on: dayflower (Virginia (VA) dayflower, Commelina virginica)
How it was run: as §1

[8] = tested on: fall panicum (Panicum dichotomiflorum)
How it was run: as §1

[9] = tested on: field bindweed (Convolvulus arvensis)
How it was run: as §1

[10] = tested on: giant foxtail (Setaria faberii)
How it was run: as §1

[11] = tested on: goosegrass (Eleusine indica)
How it was run: as §1

[12] = tested on: green foxtail (Setaria viridis)
How it was run: as §1

[13] = tested on: hairy beggarticks (Bidens pilosa)
How it was run: as §1

[14] = tested on: lambsquarters (Chenopodium album)
How it was run: as §1

[15] = tested on: morningglory (Ipomoea coccinea)
How it was run: as §1

[16] = tested on: nightshade (eastern black nightshade, Solanum ptycanthum)
How it was run: as §1

[17] = tested on: palmer pigweed (Amaranthus palmeri)
How it was run: as §1

[18] = tested on: sandbur (southern sandbur, Cenchrus echinatus)
How it was run: as §1

[19] = tested on: soybean (Glycine max)
How it was run: as §1

[20] = tested on: waterhemp (common waterhemp, Amaranthus rudis)
How it was run: as §1

[21] = tested on: yellow nutsedge (Cyperus esculentus)
How it was run: as §1

Fc1ccc(F)c(Oc2ncc(Cl)cn2)c1Oc1ncc(Cl)cn1 [Compound 34, 2,2′-[(3,6-difluoro-1,2-phenylene)bis(oxy)]bis[5-chloropyrimidine]]
Plant response rating, Crabgrass, Brazil ([1]; 16 g ai/ha): 0
Plant response rating, Crabgrass, Brazil ([1]; 31 g ai/ha): 35
Plant response rating, Crabgrass, Brazil ([1]; 62 g ai/ha): 95
Plant response rating, Crabgrass, Brazil ([1]; 125 g ai/ha): 98
Plant response rating, Ryegrass, Italian ([2]; 16 g ai/ha): 0
Plant response rating, Ryegrass, Italian ([2]; 31 g ai/ha): 0
Plant response rating, Ryegrass, Italian ([2]; 62 g ai/ha): 35
Plant response rating, Ryegrass, Italian ([2]; 125 g ai/ha): 70
Plant response rating, Surinam Grass ([3]; 16 g ai/ha): 0
Plant response rating, Surinam Grass ([3]; 31 g ai/ha): 0
Plant response rating, Surinam Grass ([3]; 125 g ai/ha): 10
Plant response rating, Arrowleaf Sida ([4]; 16 g ai/ha): 60
Plant response rating, Arrowleaf Sida ([4]; 31 g ai/ha): 80
Plant response rating, Arrowleaf Sida ([4]; 62 g ai/ha): 98
Plant response rating, Arrowleaf Sida ([4]; 125 g ai/ha): 100
Plant response rating, Barnyardgrass ([5]; 16 g ai/ha): 0
Plant response rating, Barnyardgrass ([5]; 31 g ai/ha): 0
Plant response rating, Barnyardgrass ([5]; 62 g ai/ha): 20
Plant response rating, Barnyardgrass ([5]; 125 g ai/ha): 60
Plant response rating, Corn ([6]; 16 g ai/ha): 0
Plant response rating, Corn ([6]; 31 g ai/ha): 0
Plant response rating, Corn ([6]; 62 g ai/ha): 0
Plant response rating, Corn ([6]; 125 g ai/ha): 0
Plant response rating, Dayflower, VA ([7]; 16 g ai/ha): 0
Plant response rating, Dayflower, VA ([7]; 31 g ai/ha): 30
Plant response rating, Dayflower, VA ([7]; 62 g ai/ha): 20
Plant response rating, Dayflower, VA ([7]; 125 g ai/ha): 90
Plant response rating, Panicum, Fall ([8]; 16 g ai/ha): 50
Plant response rating, Panicum, Fall ([8]; 31 g ai/ha): 80
Plant response rating, Panicum, Fall ([8]; 62 g ai/ha): 98
Plant response rating, Panicum, Fall ([8]; 125 g ai/ha): 100
Plant response rating, Field Bindweed ([9]; 16 g ai/ha): 0
Plant response rating, Field Bindweed ([9]; 31 g ai/ha): 0
Plant response rating, Field Bindweed ([9]; 62 g ai/ha): 0
Plant response rating, Field Bindweed ([9]; 125 g ai/ha): 0
Plant response rating, Foxtail, Giant ([10]; 16 g ai/ha): 0
Plant response rating, Foxtail, Giant ([10]; 31 g ai/ha): 50
Plant response rating, Foxtail, Giant ([10]; 62 g ai/ha): 85
Plant response rating, Foxtail, Giant ([10]; 125 g ai/ha): 80
Plant response rating, Goosegrass ([11]; 16 g ai/ha): 0
Plant response rating, Goosegrass ([11]; 31 g ai/ha): 0
Plant response rating, Goosegrass ([11]; 62 g ai/ha): 5
Plant response rating, Goosegrass ([11]; 125 g ai/ha): 80
Plant response rating, Foxtail, Green ([12]; 16 g ai/ha): 0
Plant response rating, Foxtail, Green ([12]; 31 g ai/ha): 10
Plant response rating, Foxtail, Green ([12]; 62 g ai/ha): 65
Plant response rating, Foxtail, Green ([12]; 125 g ai/ha): 70
Plant response rating, Beggarticks ([13]; 16 g ai/ha): 50
Plant response rating, Beggarticks ([13]; 31 g ai/ha): 60
Plant response rating, Beggarticks ([13]; 62 g ai/ha): 70
Plant response rating, Beggarticks ([13]; 125 g ai/ha): 75
Plant response rating, Lambsquarters ([14]; 16 g ai/ha): 0
Plant response rating, Lambsquarters ([14]; 31 g ai/ha): 70
Plant response rating, Lambsquarters ([14]; 62 g ai/ha): 90
Plant response rating, Lambsquarters ([14]; 125 g ai/ha): 100
Plant response rating, Morningglory ([15]; 31 g ai/ha): 20
Plant response rating, Morningglory ([15]; 62 g ai/ha): 50
Plant response rating, Morningglory ([15]; 125 g ai/ha): 65
Plant response rating, Nightshade ([16]; 16 g ai/ha): 50
Plant response rating, Nightshade ([16]; 31 g ai/ha): 50
Plant response rating, Nightshade ([16]; 62 g ai/ha): 80
Plant response rating, Nightshade ([16]; 125 g ai/ha): 95
Plant response rating, Pigweed, Palmer ([17]; 16 g ai/ha): 0
Plant response rating, Pigweed, Palmer ([17]; 31 g ai/ha): 50
Plant response rating, Pigweed, Palmer ([17]; 62 g ai/ha): 70
Plant response rating, Pigweed, Palmer ([17]; 125 g ai/ha): 100
Plant response rating, Sandbur ([18]; 16 g ai/ha): 0
Plant response rating, Sandbur ([18]; 31 g ai/ha): 0
Plant response rating, Sandbur ([18]; 62 g ai/ha): 10
Plant response rating, Sandbur ([18]; 125 g ai/ha): 70
Plant response rating, Soybean ([19]; 16 g ai/ha): 0
Plant response rating, Soybean ([19]; 31 g ai/ha): 10
Plant response rating, Soybean ([19]; 62 g ai/ha): 25
Plant response rating, Soybean ([19]; 125 g ai/ha): 60
Plant response rating, Waterhemp ([20]; 16 g ai/ha): 100
Plant response rating, Waterhemp ([20]; 31 g ai/ha): 100
Plant response rating, Waterhemp ([20]; 62 g ai/ha): 100
Plant response rating, Waterhemp ([20]; 125 g ai/ha): 100
Plant response rating, Nutsedge, Yellow ([21]; 16 g ai/ha): 0
Plant response rating, Nutsedge, Yellow ([21]; 31 g ai/ha): 0
Plant response rating, Nutsedge, Yellow ([21]; 62 g ai/ha): 0
Plant response rating, Nutsedge, Yellow ([21]; 125 g ai/ha): 0
